Key:
HSC82 [1] = molecular target: T1, HSC82 (Saccharomyces cerevisiae, UniProt P15108, A41S); assay: fluorescence polarization competition with GA-FITC on purified protein; type: binding
T1 construct: N-terminal domain, C-terminal hexahistidine tag

HSC82 [2] = molecular target: T2, HSC82 (Saccharomyces cerevisiae, UniProt P15108); assay: as above; type: binding
T2 construct: N-terminal domain, C-terminal hexahistidine tag

Row | SMILES | fluorescence polarization competition with GA-FITC on purified protein (HSC82 [1]) | fluorescence polarization competition with GA-FITC on purified protein (HSC82 [2])
1 | COC1=C2C[C@@H](C)C[C@H](OC)[C@H](O)[C@@H](C)/C=C(\C)[C@H](OC(N)=O)[C@@H](OC)/C=C\C=C(/C)C(=O)NC(=CC1=O)C2=O [Geldanamycin] | GA binding was unaffected by the A41S substitution in yeast HSC82 | GA binding was unaffected by the A41S substitution in yeast HSC82
2 | CCNC(=O)c1noc(-c2cc(C(C)C)c(O)cc2O)c1-c1ccc(CN2CCOCC2)cc1 [AUY-922] | A41S reduced AUY-922 binding affinity in yeast HSC82, as evidenced by a rightward shift in the competition curve | A41S reduced AUY-922 binding affinity in yeast HSC82, as evidenced by a rightward shift in the competition curve
